Test results reported in patent US6172079A, “5-substituted-3-oxadiazolyl-1,6-naphthyridin-2(1H)-one derivatives” (Dainippon Pharmaceutical Co., Ltd., priority 1997, dated 2001).

Legend:
[1] = system: GABAA receptor; details: background statement; cited from earlier work
[2] = system: ddY male mice (pentylentetrazol-induced convulsion); test: Test of Increasing Activity on Pentylentetrazol-induced Convulsion; type: in vivo; details: Mus musculus, 0.5 h; 50 mg/kg, po; pentylentetrazol 70 mg/kg s.c. 15 min later; read-out: Effects (number of animals) with increased pentylentetrazol-induced convulsion (converted)
Protocol: It is known that benzodiazepine receptor inverse agonists increase convulsion induced by pentylentetrazol [cf. Progress in Neuro-Psychopharmacology and Biological Psychiatry, vol. […] Some compounds of the present invention were tested as to the activities of increasing the pentylentetrazol-induced convulsion.
A test compound (compounds disclosed in working examples) was orally administered to ddY male mice (weight; 22-25 g, five mice/group) in an amount of 5-100 mg/kg. […] The effects were evaluated by the number of mice among five mice, of which the convulsion increasing effects were observed.

[3] = system: GABAA receptor complex (TBPS binding); test: TBPS Binding Assay; set-up: species or system Wistar rats; details: [35S]TBPS 0.4 nM, GABA 1 μM, rat cerebral cortex membrane, +% inverse agonistic, 0% antagonistic
Protocol: The TBPS (t-butylbicyclophosphonothionate) binding assay and the preparation of the membrane specimen were done in a similar manner to the method of Biggio, G. et al. [cf. European Journal of Pharmacology, vol.
That is, to the cerebral cortex was added a 50-fold volume of an ice-cooled buffer (a 50 mM Tris-citrate buffer containing 100 mM sodium chloride, pH 7.4) and the mixture was homogenized at 0-4° C. and then centrifuged at 20,000 g for 20 minutes. The pellets thus obtained were once subjected to homogenization in a buffer and centrifugation by the same procedure as above and then kept in freezed state at -80° C. for more than 20 hours. On the test day, the freezed pellets were thawed and then subjected twice to the homogenization-centrifugation procedure as described above.
Subsequently, the filter was moved into a liquid scintillation vial and thereto was added a liquid scintillation cocktail (ACS-II, manufactured by Amersham, USA, 10 ml) and allowed to stand for a fixed period of time. […] Separately, the same procedures were repeated in the presence of Picrotoxin to determine the non-specific binding amount. The non-specific binding amount was deducted from the total binding amount to give the specific binding amount. The binding activity of the test compound was calculated by a variation rate, i.e., a rate of the specific binding amount of the test compound to the specific binding amount in control (using a solvent).

[4] = target: benzodiazepine receptor; test: Benzodiazepine Receptor Binding Assay; details: read-out: BZP-receptor Binding IC50; [3H]-diazepam 1.5 nM; rat brain crude synaptosome membrane; 0° C., 20 min

Compound | uptake of Cl ion into cells [1] | responders at 50 mg/kg [2] [%] | TBPS binding Variation Rate [3] [%] | IC50 [4] [nM]
CNC(=O)c1cc2c(cn1)[nH]c1ccccc12 [FG7142, N-methyl-β-carboline-3-carboxamide] | increased |  |  | 
CCc1c(C(=O)OC)ncc2[nH]c3cc(OC)c(OC)cc3c12 [DMCM, methyl-6,7-dimethoxy-4-ethyl-β-carboline-3-carboxylate] | increased |  |  | 
O=C1CN=C(c2ccccc2Cl)c2cc([N+](=O)[O-])ccc2N1 [chlonazepam] | decreased |  |  | 
NCc1cc(=O)[nH]o1 [Muscimol] | decreased |  |  | 
O=c1[nH]c2ccnc(-c3ccsc3)c2cc1-c1nc(C2CC2)no1 [Example 247, 3-(3-Cyclopropyl-1,2,4-oxadiazol-5-yl)-5-(3-thienyl)-1,6-naphthyridin-2(1H)-one] |  | 80 | 16 | 1.39
Cc1nc(-c2cc3c(-c4ccncc4)nccc3[nH]c2=O)no1 [Example 94, 3-(5-Methyl-1,2,4-oxadiazol-3-yl)-5-(4-pyridyl)-1,6-naphthyridin-2(1H)-one] |  | 80 | 34 | 4.49
